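Interpolation was linear, between the two tested concentrations surrounding the appropriate level; five concentrations were tested over 48 hours in 96-well plates. Definition used: TGI = concentration required for complete inhibition of growth.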
Assays:
Assay in all cases: inhibition of tumour cell growth, NCI panel, 48 h
A549 NSCLC = system: A549 NSCLC
ACHN renal = system: ACHN renal
HL-60(TB) leukemia = system: HL-60(TB) leukemia
HOP-62 NSCLC = system: HOP-62 NSCLC
HOP-92 NSCLC = system: HOP-92 NSCLC
MOLT-4 leukemia = system: MOLT-4 leukemia
NCI-H460 lung = system: NCI-H460 lung
PC-3 prostate = system: PC-3 prostate
RPMI-8226 leukemia = system: RPMI-8226 leukemia
SK-MEL-28 melanoma = system: SK-MEL-28 melanoma
SK-OV-3 ovarian = system: SK-OV-3 ovarian
SN12C renal = system: SN12C renal
SNB-75 CNS = system: SNB-75 CNS
SR leukemia = system: SR leukemia
SW-620 colon = system: SW-620 colon
UO-31 renal = system: UO-31 renal
DU-145 prostate = system: DU-145 prostate
NCI-H522 lung = system: NCI-H522 lung

| Compound | TGI (A549 NSCLC) [µM] | TGI (ACHN renal) [µM] | TGI (HL-60(TB) leukemia) [µM] | TGI (HOP-62 NSCLC) [µM] | TGI (HOP-92 NSCLC) [µM] | TGI (MOLT-4 leukemia) [µM] | TGI (NCI-H460 lung) [µM] | TGI (PC-3 prostate) [µM] | TGI (RPMI-8226 leukemia) [µM] | TGI (SK-MEL-28 melanoma) [µM] | TGI (SK-OV-3 ovarian) [µM] | TGI (SN12C renal) [µM] | TGI (SNB-75 CNS) [µM] | TGI (SR leukemia) [µM] | TGI (SW-620 colon) [µM] | TGI (UO-31 renal) [µM] | TGI (DU-145 prostate) [µM] | TGI (NCI-H522 lung) [µM] |
| --- | --- | --- | --- | --- | --- | --- | --- | --- | --- | --- | --- | --- | --- | --- | --- | --- | --- | --- |
| CCOC(=O)NC(C(=O)OCC)C(F)(F)F (centres undefined) | > 100 | > 100 | 69.9 | > 100 | > 100 | > 100 | > 100 | > 100 | > 100 | > 100 | > 100 | > 100 | > 100 | > 100 | > 100 | > 100 |  |  |
| O=C1NC(=S)NC(=O)C1C(c1ccc([N+](=O)[O-])cc1)C1C(=O)NC(=S)NC1=O | > 100 | > 100 | > 100 | > 100 | > 100 | > 100 | > 100 | > 100 | > 100 | > 100 |  | > 100 |  |  | > 100 | > 100 | > 100 | > 100 |
| C#CCOCn1ccc(=O)[nH]c1=O | > 100 | > 100 | > 100 | > 100 |  | > 100 | > 100 | > 100 | > 100 | > 100 | > 100 | > 100 | > 100 | > 100 | > 100 | > 100 | > 100 |  |
| N=C(N)C(N=Nc1ccccc1)C(N)=O (centres undefined) | > 100 | > 100 | > 100 | > 100 | > 100 | > 100 | > 100 | > 100 | > 100 | > 100 | > 100 | > 100 | > 100 |  | > 100 | > 100 | > 100 | > 100 |
| c1cc(CSP234N5CCN2CCN3CCN4CC5)ccc1CSP123N4CCN1CCN2CCN3CC4 | > 100 | > 100 | 79.8 | > 100 | > 100 | > 100 | > 100 | > 100 | 84.6 | > 100 |  | > 100 | > 100 |  | > 100 | > 100 | > 100 | > 100 |
| CN(C)CCCNc1ncnc2nc[nH]c12 | > 100 | > 100 |  | > 100 | > 100 | > 100 | > 100 | > 100 | > 100 | > 100 | > 100 | > 100 |  |  | > 100 | > 100 | > 100 | > 100 |
| C(=Nc1ccc(-c2cc(-c3ccccc3)nc3ccc4ccccc4c23)cc1)c1ccccc1 | 62.2 | > 100 | > 100 | 56.1 |  | > 100 | > 100 | > 100 | > 100 | > 100 | > 100 | > 100 | > 100 | > 100 | > 100 | 73.1 | 68.6 |  |
| Cc1cccc2c(=O)c3c(O)cc(O)cc3[nH]c12 | > 10 | > 10 |  | > 10 | > 10 | > 10 | > 10 | > 10 | > 10 | > 10 | > 10 | > 10 | > 10 |  | > 10 | > 10 | > 10 | > 10 |
| C=C(C(=O)O)C1CCC(CC/C=C(\C)CC/C=C(\C)CCC=C(C)C)CO1 (centres undefined) | 32.4 | > 100 | 69.4 | 55.6 |  |  |  | 79.1 |  | 29.5 | > 100 | 34.3 | > 100 |  | 33.4 | 30 | 42.2 | 48.6 |
| NC1=NNC2(C(=O)N1)c1ccccc1-c1ccccc12 | > 10 | > 10 | > 10 | > 10 | > 10 | > 10 | > 10 | > 10 | > 10 | > 10 | > 10 | > 10 | > 10 | > 10 | > 10 | > 10 |  |  |
| N#CCC(=O)c1cc(OCc2cc(OCc3ccc(Br)cc3)cc(OCc3ccc(Br)cc3)c2)cc(OCc2cc(OCc3ccc(Br)cc3)cc(OCc3ccc(Br)cc3)c2)c1 | > 100 | > 100 |  | > 100 | > 100 |  | > 100 | > 100 | > 100 | > 100 | > 100 | > 100 | > 100 |  |  | > 100 | > 100 | > 100 |
| Cc1cc(C)nc(NC(=S)Nc2ccccc2Cl)c1 | > 100 |  | > 100 | > 100 |  | > 100 | > 100 | > 100 | > 100 | > 100 | > 100 | > 100 | > 100 | > 100 | > 100 | > 100 | > 100 | > 100 |
| CC(=O)CCC(=O)C(=[N+]=[N-])S(=O)(=O)c1ccccc1 | > 100 | > 100 | > 100 | > 100 |  | > 100 | > 100 | > 100 | > 100 | > 100 |  | > 100 | > 100 | > 100 | > 100 | > 100 | > 100 | > 100 |
| CC1=C(O)C(=O)C[C@]2(C)[C@H]3CC=C4[C@@H]5CC(C)(C)CC[C@@H]5C(=O)[C@H](O)[C@@]4(C)[C@]3(C)CC[C@@H]12 | > 50 | > 50 | > 50 | > 50 | 28.5 | > 50 | > 50 | > 50 | > 50 | > 50 | > 50 | > 50 | > 50 |  | > 50 | > 50 | > 50 | > 50 |

From PubChem BioAssay (NCI)
